# Assay results: patent US6613747B2, “6-O-carbamoyl ketolide antibacterials” (Ortho-McNeil Pharmaceutical, Inc., priority 2000, dated 2003)
# Like-named read-outs stand apart in the source and are kept apart here.
# What was measured:
# Test in all cases: MIC, microdilution broth method (NCCLS)
# Assay type in all cases: cell-based
# E. faecalis ATCC29212 = conditions: C: E. faecalis ATCC29212, 35° C., 16-20 hours
# Description: (§1) Minimal inhibitory concentration (MIC) has been an indicator of in vitro antibacterial activity widely used in the art. The in vitro antimicrobial activity of the compounds was determined by the microdilution broth method following the test method from the National Committee for Clinical Laboratory Standards (NCCLS). This method is described in the NCCLS Document M7-A4, Vol. 17, No. 2, “Methods for Dilution Antimicrobial Susceptibility Test for Bacteria that Grow Aerobically—Fourth Edition”, which is incorporated herein by reference.
# (§2) In this method two-fold serial dilutions of drug in cation adjusted Mueller-Hinton broth are added to wells in microdilution trays. The test organisms are prepared by adjusting the turbidity of actively growing broth cultures so that the final concentration of test organism after it is added to the wells is approximately 5×10^4 CFU/well.
# (§3) Following inoculation of the microdilution trays, the trays are incubated at 35° C. for 16-20 hours and then read. […] The amount of growth in the wells containing the test compound is compared with the amount of growth in the growth-control wells (no test compound) used in each tray. As set forth in Table 1, compounds of the present invention were tested against a variety of Gram positive and Gram negative pathogenic bacteria resulting in a range of activities depending on the organism tested.
# E. coli OC2605 = conditions: A: E. coli OC2605, 35° C., 16-20 hours
# Description: as §1, §2, §3
# S. aureus ATCC29213 = conditions: B: S. aureus ATCC29213, 35° C., 16-20 hours
# Description: as §1, §2, §3
# S. pneumoniae ATCC49619 = conditions: D: S. pneumoniae ATCC49619, 35° C., 16-20 hours
# Description: as §1, §2, §3
# H. influenzae ATCC49247 = conditions: E: H. influenzae ATCC49247, 35° C., 16-20 hours
# Description: as §1, §2, §3
# [1] = Enterococcus faecalis, read-out: MIC
# [2] = Escherichia coli, read-out: MIC
# [3] = Staphylococcus aureus, read-out: MIC
Compound,MIC (E. faecalis ATCC29212) [µg/mL],MIC (E. coli OC2605) [µg/mL],MIC (S. aureus ATCC29213) [µg/mL],MIC (S. pneumoniae ATCC49619),MIC (H. influenzae ATCC49247) [µg/mL],MIC (E. faecalis ATCC29212; [1]) [µg/mL],MIC (E. coli OC2605; [2]) [µg/mL],MIC (S. aureus ATCC29213; [3]) [µg/mL],"MIC (S. pneumoniae ATCC49619; Streptococcus pneumoniae, read-out: MIC) [µg/mL]","MIC (H. influenzae ATCC49247; Haemophilus influenzae, read-out: MIC) [µg/mL]"
CC[C@H]1OC(=O)[C@H](C)C(=O)[C@H](C)[C@@H](O[C@@H]2O[C@H](C)C[C@H](N(C)C)[C@H]2O)[C@](C)(OC(=O)NCc2ccccc2)C[C@@H](C)C(=O)[C@H](C)[C@H]2NC(=O)O[C@@]21C [Compound 1],0.12,>16,4,0.03 µg/mL,–,–,–,–,–,–
CC[C@H]1OC(=O)[C@H](C)C(=O)[C@H](C)[C@@H](O[C@@H]2O[C@H](C)C[C@H](N(C)C)[C@H]2O)[C@](C)(OC(=O)NCCCc2ccccc2)C[C@@H](C)C(=O)[C@H](C)[C@H]2NC(=O)O[C@@]21C [Compound 2],0.25,16,1,0.06 µg/mL,2,–,–,–,–,–
CC[C@H]1OC(=O)[C@H](C)C(=O)[C@H](C)[C@@H](O[C@@H]2O[C@H](C)C[C@H](N(C)C)[C@H]2O)[C@](C)(OC(=O)NCc2ccc(Br)cc2)C[C@@H](C)C(=O)[C@H](C)[C@H]2NC(=O)O[C@@]21C [Compound 5],0.25,>16,0.5,0.03 µg/mL,–,–,–,–,–,–
CC[C@H]1OC(=O)[C@H](C)C(=O)[C@H](C)[C@@H](O[C@@H]2O[C@H](C)C[C@H](N(C)C)[C@H]2O)[C@](C)(OC(N)=O)C[C@@H](C)C(=O)[C@H](C)[C@H]2NC(=O)O[C@@]21C [Compound 6],1,>16,4,0.12 µg/mL,–,–,–,–,–,–
"CC[C@H]1OC(=O)[C@H](C)C(=O)[C@H](C)[C@@H](O[C@@H]2O[C@H](C)C[C@H](N(C)C)[C@H]2O)[C@](C)(OC(=O)NC/C=C/c2ccc(-c3ncccn3)cc2)C[C@@H](C)C(=O)[C@H](C)[C@H]2NC(=O)O[C@@]21C [Compound 32, Carbamic acid, [(2E)-3-[4-(2-pyrimidinyl)phenyl]-2-propenyl]-, (3aS,4R,7R,9R,10R,11R,13R,15R,15aR)-4-ethyltetradecahydro-3a,7,9,11,13,15-hexamethyl-2,6,8,14-tetraoxo-10-[[3,4,6-trideoxy-3-(dimethylamino)-β-D-xylo-hexopyranosyl]oxy]-2H-oxacyclotetradecino[4,3-d]oxazol-11-yl ester]",–,–,–,–,–,0.06,16,0.12,0.06,–
CC[C@H]1OC(=O)[C@H](C)C(=O)[C@H](C)[C@@H](O[C@@H]2O[C@H](C)C[C@H](N(C)C)[C@H]2O)[C@](C)(OC(=O)NC/C=C/c2ccc(-n3ccnn3)cc2)C[C@@H](C)C(=O)[C@H](C)[C@H]2NC(=O)O[C@@]21C [Compound 33],0.06,8,0.12,≦0.015 μg/mL,–,–,–,–,–,–
CC[C@H]1OC(=O)[C@H](C)C(=O)[C@H](C)[C@@H](O[C@@H]2O[C@H](C)C[C@H](N(C)C)[C@H]2O)[C@](C)(OC(=O)NC/C=C/c2ccnc3ccccc23)C[C@@H](C)C(=O)[C@H](C)[C@H]2NC(=O)O[C@@]21C [Compound 34],0.06,8,0.12,≦0.015 μg/mL,–,–,–,–,–,–
CC[C@H]1OC(=O)[C@H](C)C(=O)[C@H](C)[C@@H](O[C@@H]2O[C@H](C)C[C@H](N(C)C)[C@H]2O)[C@](C)(OC(=O)NC/C=C/c2cccc(-c3ccccn3)c2)C[C@@H](C)C(=O)[C@H](C)[C@H]2NC(=O)O[C@@]21C [Compound 36],0.03,8,0.12,≦0.015 μg/mL,–,–,–,–,–,–
CC[C@H]1OC(=O)[C@H](C)C(=O)[C@H](C)[C@@H](O[C@@H]2O[C@H](C)C[C@H](N(C)C)[C@H]2O)[C@](C)(OC(=O)NCc2cccc(-c3ccccn3)c2)C[C@@H](C)C(=O)[C@H](C)[C@H]2NC(=O)O[C@@]21C [Compound 37],0.12,16,0.5,0.03 µg/mL,–,–,–,–,–,–
CC[C@H]1OC(=O)[C@H](C)C(=O)[C@H](C)[C@@H](O[C@@H]2O[C@H](C)C[C@H](N(C)C)[C@H]2O)[C@](C)(OC(=O)NC/C=C/c2ccc3ncccc3c2)C[C@@H](C)C(=O)[C@H](C)[C@H]2NC(=O)O[C@@]21C [Compound 38],0.03,8,0.12,≦0.015 μg/mL,–,–,–,–,–,–
CC[C@H]1OC(=O)[C@H](C)C(=O)[C@H](C)[C@@H](O[C@@H]2O[C@H](C)C[C@H](N(C)C)[C@H]2O)[C@](C)(OC(=O)NC/C=C/c2ccc(-n3cnnc3)cc2)C[C@@H](C)C(=O)[C@H](C)[C@H]2NC(=O)O[C@@]21C [Compound 40],0.5,16,1,0.12 µg/mL,–,–,–,–,–,–
CC[C@H]1OC(=O)[C@H](C)C(=O)[C@H](C)[C@@H](O[C@@H]2O[C@H](C)C[C@H](N(C)C)[C@H]2O)[C@](C)(OC(=O)NC/C=C/c2cccc3cccnc23)C[C@@H](C)C(=O)[C@H](C)[C@H]2NC(=O)O[C@@]21C [Compound 46],0.06,16,0.25,–,2,–,–,–,–,–
CC[C@H]1OC(=O)[C@H](C)C(=O)[C@H](C)[C@@H](O[C@@H]2O[C@H](C)C[C@H](N(C)C)[C@H]2O)[C@](C)(OC(=O)NC/C=C/c2ccc3cccnc3c2)C[C@@H](C)C(=O)[C@H](C)[C@H]2NC(=O)O[C@@]21C [Compound 47],0.06,16,0.25,–,1,–,–,–,–,–
CC[C@H]1OC(=O)[C@H](C)C(=O)[C@H](C)[C@@H](O[C@@H]2O[C@H](C)C[C@H](N(C)C)[C@H]2O)[C@](C)(OC(=O)NC/C=C/c2cccc(-n3cccn3)n2)C[C@@H](C)C(=O)[C@H](C)[C@H]2NC(=O)O[C@@]21C [Compound 48],0.12,>16,0.5,–,4,–,–,–,–,–
CC[C@H]1OC(=O)[C@H](C)[C@@H](O)[C@H](C)[C@@H](O[C@@H]2O[C@H](C)C[C@H](N(C)C)[C@H]2O)[C@](C)(OC(=O)NC/C=C/c2ccc(-c3ncccn3)cc2)C[C@@H](C)C(=O)[C@H](C)[C@H]2NC(=O)O[C@@]21C [Compound 95],–,–,–,–,–,0.25,> 16,1,–,2
CCC1OC(=O)C(C)(F)C(=O)C(C)C(OC2OC(C)CC(N(C)C)C2O)C(C)(OC(=O)NCC=Cc2ccc(-c3cccnn3)cc2)CC(C)C(=O)C(C)C2NC(=O)OC12C (stereo not shown) [Compound 99],0.12,8,0.5,–,1,–,–,–,–,–
CCC1OC(=O)C(C)(F)C(=O)C(C)C(OC2OC(C)CC(N(C)C)C2O)C(C)(OC(=O)NCC=Cc2ccc(-c3ccncn3)cc2)CC(C)C(=O)C(C)C2NC(=O)OC12C (stereo not shown) [Compound 100],0.12,16,0.5,–,2,–,–,–,–,–
CC[C@H]1OC(=O)[C@H](C)C(=O)[C@H](C)[C@@H](O[C@@H]2O[C@H](C)C[C@H](N(C)C)[C@H]2O)[C@](C)(OC(=O)NC2CC(c3ccc(-c4ncccn4)cc3)C2)C[C@@H](C)C(=O)[C@H](C)[C@H]2NC(=O)O[C@@]21C (stereo partly shown) [Compound 136],4,>16,–,2 µg/mL,>16,–,–,–,–,–
